The values that follow come from publication PMC3468400, “Pharmacokinetic profiles of artesunate following multiple intravenous doses of 2, 4, and 8 mg/kg in healthy volunteers: Phase 1b study” (Malaria Journal, 2012).

Read-outs that look alike come from different tables or passages of the source.

Data set [1] is described as follows: Pharmacokinetics of dihydroartemisinin (DHA), active metabolite, in plasma after multiple intravenous AS doses, non-compartmental analysis. To be noted: for Total AUCD1-D3: DHA, days 1-3; for AUC: Mean AUC of DHA, range over doses, AS 2-8 mg/kg iv. The class given is in vivo, human. On the procedure:
The study was a double blind, ascending multiple doses, alternating group, safety, tolerance, and PK study. […] When the injection was completed, the study nurse recorded tolerance of injection to include both inspection of site and subjects’ responses. Subjects were provided a light lunch at approximately 4 hours after dosing. Normal activities, excluding strenuous exercise, were permitted four hours after dosing. […] During the multiple-dose period, samples were collected immediately before morning dose on days 2 and 3 for additional trough values. All the samples were stored at −80 °C until shipment and were then shipped to a bio-analytical GLP laboratory, Midwest Research Institute (MRI), in Kansas City, MO, USA. The human use protocol numbers for the Phase 1 trial are: USUHS #G183RW; WRIAR #1128; and HSRRB #A-13276.
The analytes were extracted from human plasma with ethyl acetate. […] The reconstituted extracts were analysed on a Micromass Quattro II Mass Spectrometer in the positive ion electrospray ionization (+ESI) mode. […] This method employed a Varian Pursuit C18 column (150 x 2.0 mm, 5-μm particle size) and a gradient elution with the following mobile phases: A: 10 mM ammonium acetate in water with 1% formic acid and B: 10 mM ammonium acetate in acetonitrile with 1% formic acid, for the chromatographic separation.
Calibration standards and QC samples were analysed to evaluate the performance of the assay.
The maximum concentration in plasma for each subject was read directly from the experimental values. […] The values of the following PK parameters were derived by a non-compartmental method: the half-life (t½); mean residence time (MRT); the AUC from time zero to the last sampling time (AUCt); the AUC from time zero extrapolated to infinity (AUCinf); relative total systemic clearance (CL/F_obs); and volume of distribution during steady state (Vss/F_obs). A drug accumulation index was estimated from the AUC value on day 3 divided by the AUC value on day 1 (first multiple dose administration).

Data set [2] relates to asexual blood stage parasites. To be noted: cited from earlier work.
The test system of data set [3] is severe falciparum malaria. To be noted: SEAQUAMAT, severe malaria patients, intravenous treatment; cited from earlier work.
[4] abbreviates: human, plasma, intravenous, all days and dose cohorts.

By CL/F is commonly meant clearance divided by bioavailability, as obtained after extravascular dosing. Broadly, the Tmax is the time from dosing to the highest level. As a reminder, the Cmax is the peak of the concentration-time curve. The term MRT denotes the average time that molecules of a dose stay in the body. By AUC is commonly meant the area under the concentration-time curve, a measure of exposure. In the case of `C[C@H]1[C@@H](O)O[C@@H]2O[C@@]3(C)CC[C@H]4[C@H](C)CC[C@@H]1[C@@]24OO3` [DHA, dihydroartemisinin], the results for the “Mean peak concentrations of DHA over the three days, range” value in data set [1] (4 mg/kg cohort) and in data set [1] (8 mg/kg cohort) were 2923 to 3018 ng/mL and 5762 to 6056 ng/mL, respectively. Further, the “Total AUCD1-D3” value is 6520 (18) in data set [1] (AS 2 mg/kg iv daily for 3 days, mean (CV%), n = 6); 12092 (20) in data set [1] (AS 4 mg/kg iv daily for 3 days, mean (CV%), n = 6); 27635 (34) in data set [1] (AS 8 mg/kg iv daily for 3 days, mean (CV%), n = 6). Moreover, the “time DHA detected in plasma” value in data set [1] (after each short-term infusion of AS, all volunteers) is on record as “until six hours”. Moreover, the AUC(0-inf) in data set [1] (human, plasma, intravenous, 2 mg/kg, Mean AUCinf of DHA over three days, range, 2 mg/kg cohort) is 2020 to 2380 ng·h/mL; in data set [1] (human, plasma, intravenous, 4 mg/kg, Mean AUCinf of DHA over three days, range, 4 mg/kg cohort), 3740 to 4390 ng·h/mL; in data set [1] (human, plasma, intravenous, 8 mg/kg, Mean AUCinf of DHA over three days, range, 8 mg/kg cohort) it was 8730 to 9700 ng·h/mL; in data set [1] (human, plasma, iv, 2 mg/kg, Day 1, DHA after AS 2 mg/kg iv daily for 3 days, 2 min infusion, mean (CV%), n = 6, NCA, read-out: AUCinf), 2120 ng·h/mL; in data set [1] (human, plasma, iv, 4 mg/kg, Day 1, DHA after AS 4 mg/kg iv daily for 3 days, 2 min infusion, mean (CV%), n = 6, NCA, read-out: AUCinf) it was 4390 ng·h/mL; in data set [1] (human, plasma, iv, 4 mg/kg, Day 3, DHA after AS 4 mg/kg iv daily for 3 days, 2 min infusion, mean (CV%), n = 6, NCA, read-out: AUCinf) it was 3960 ng·h/mL. The AUC(0-inf) is 9700 ng·h/mL in data set [1] (human, plasma, iv, 8 mg/kg, Day 1, DHA after AS 8 mg/kg iv daily for 3 days, 2 min infusion, mean (CV%), n = 6, NCA, read-out: AUCinf) and 9200 ng·h/mL in data set [1] (human, plasma, iv, 8 mg/kg, Day 3, DHA after AS 8 mg/kg iv daily for 3 days, 2 min infusion, mean (CV%), n = 6, NCA, read-out: AUCinf). Also, in data set [1] (setting [4]), the CL/F lay within 14.6 to 19.4 mL/min/kg. The Tmax in data set [1] (setting [4]) was 0.16 to 0.29 h; in data set [1] (human, plasma, iv, 2 mg/kg, read-out: Tmax), 0.29 h; in data set [1] (human, plasma, iv, 4 mg/kg, read-out: Tmax), 0.25 h; in data set [1] (human, plasma, iv, 8 mg/kg, read-out: Tmax) it was 0.25 h. For the same compound, the Cmax came out at 1740 ng/mL in data set [1] (human, plasma, iv, 2 mg/kg); 3020 ng/mL in data set [1] (human, plasma, iv, 4 mg/kg); 6060 ng/mL in data set [1] (human, plasma, iv, 8 mg/kg). Besides, the MRT in data set [1] (human, plasma, iv, 2 mg/kg, Day 1, DHA after AS 2 mg/kg iv daily for 3 days, 2 min infusion, mean (CV%), n = 6, NCA) came out at 1.41 h; in data set [1] (human, plasma, iv, 2 mg/kg, Day 3, DHA after AS 2 mg/kg iv daily for 3 days, 2 min infusion, mean (CV%), n = 6, NCA), 1.39 h; in data set [1] (human, plasma, iv, 4 mg/kg, Day 1, DHA after AS 4 mg/kg iv daily for 3 days, 2 min infusion, mean (CV%), n = 6, NCA) it was 1.91 h; in data set [1] (human, plasma, iv, 4 mg/kg, Day 3, DHA after AS 4 mg/kg iv daily for 3 days, 2 min infusion, mean (CV%), n = 6, NCA), 1.57 h; in data set [1] (human, plasma, iv, 8 mg/kg, Day 1, DHA after AS 8 mg/kg iv daily for 3 days, 2 min infusion, mean (CV%), n = 6, NCA), 1.81 h; in data set [1] (human, plasma, iv, 8 mg/kg, Day 3, DHA after AS 8 mg/kg iv daily for 3 days, 2 min infusion, mean (CV%), n = 6, NCA), 1.78 h. Moreover, the half-life is 1.19 h in data set [1] (human, plasma, iv, 2 mg/kg, Day 1, DHA after AS 2 mg/kg iv daily for 3 days, 2 min infusion, mean (CV%), n = 6, NCA, read-out: t1/2 elimination (converted)); 1.74 h in data set [1] (human, plasma, iv, 4 mg/kg, Day 1, DHA after AS 4 mg/kg iv daily for 3 days, 2 min infusion, mean (CV%), n = 6, NCA, read-out: t1/2 elimination (converted)); 1.24 h in data set [1] (human, plasma, iv, 4 mg/kg, Day 3, DHA after AS 4 mg/kg iv daily for 3 days, 2 min infusion, mean (CV%), n = 6, NCA, read-out: t1/2 elimination (converted)); 1.42 h in data set [1] (human, plasma, iv, 8 mg/kg, Day 1, DHA after AS 8 mg/kg iv daily for 3 days, 2 min infusion, mean (CV%), n = 6, NCA, read-out: t1/2 elimination (converted)); 1.34 h in data set [1] (human, plasma, iv, 8 mg/kg, Day 3, DHA after AS 8 mg/kg iv daily for 3 days, 2 min infusion, mean (CV%), n = 6, NCA, read-out: t1/2 elimination (converted)); 1.23 to 1.63 h in data set [1] (human, plasma, iv, 8 mg/kg, mean elimination half-life of DHA, range, range of means over three days and AS 2, 4, 8 mg/kg iv doses). Also, the AUC lay within 2120 to 9700 ng·h/mL in data set [1] (human, plasma, iv, day 1) and 2380 to 9200 ng·h/mL in data set [1] (human, plasma, iv, day 3). Further, the “mean elimination half-life of DHA, range” value in data set [1] (range of means over three days and AS 2, 4, 8 mg/kg iv doses) lay within 1.19 to 1.91 h. In addition, the “time to complete inhibition of parasite growth” value in data set [2] is “within two to four hours”.

In the case of `C=C[C@H]1C[N@@]2CC[C@H]1C[C@H]2[C@H](O)c1ccnc2ccc(OC)cc12` [quinine], in data set [3], the mortality rate is 22%.
